Source: PMC4336642 (Journal of neuroimmune pharmacology : the official journal …, 2015)
Converted amounts (≈) assume the structure as drawn.

Key:
BV-2 cells = assay: MTT cytotoxicity assay, microglia model; format: cell-based, murine; conditions: Mus musculus, BV-2, 24 h, read-out: IC50, Microglia
SH-SY5Y cells = assay: MTT cytotoxicity assay, neurons model; format: cell-based; conditions: Homo sapiens, 24 h, read-out: IC50, Neurons
A172 cells = assay: MTT cytotoxicity assay, astrocytes model; format: cell-based; conditions: Homo sapiens, A 172, 24 h, read-out: IC50, Astrocytes
bEnd.3 cells = assay: MTT cytotoxicity assay, BBB model; format: cell-based, murine; conditions: Mus musculus, BEND3, 24 h, read-out: IC50, BBB

Cc1cn([C@H]2C[C@H](N=[N+]=[N-])[C@@H](CO)O2)c(=O)[nH]c1=O [Z, 3’-azido-3’-deoxythymidine]
IC50 (BV-2 cells): 800 µg/mL (≈ 2.99 mM)
IC50 (SH-SY5Y cells): > 1000 µg/mL
IC50 (A172 cells): > 1000 µg/mL
IC50 (bEnd.3 cells): > 1000 µg/mL
reduction in the mtDNA/nuDNA ratio / mitochondrial toxicity (HepG2 cells): two-fold reduction
